These results are taken from patent US11013780B2, “Methods of treating female infertility” (Myovant Sciences GmbH, priority 2016, dated 2021).

Data set [1] is described as follows: In vitro distribution into blood cells, humans. Type of data set: in vitro ADME. How it is done:
The in vitro distribution ratios of [^14C]API-MA into the blood cells at the concentrations of 0.01, 0.1, 1, and 10 μg/mL API-FB (free form) were 7.8%, 8.0%, 7.1%, and 4.8% for rats, 2.4%, 2.0%, 1.6%, and 1.2% for dogs, and 2.0%, 0.0%, 0.0%, and 0.5% for humans, respectively. […] The in vitro plasma protein binding ratios of [^14C]API-FB in rats, dogs, monkeys, and humans were determined by the ultracentrifugation method. In addition, the protein binding to human serum albumin (HSA), α1-acid glycoprotein (AGP), and HSA/AGP was investigated. […] In rats and dogs, a slight decrease in the binding ratio at the concentration range between 0.1 and 1.0 μg/mL API-FB was observed. In monkeys and humans, the binding was independent of the drug concentrations from 0.01 to 10 μg/mL API-FB.

The nature of data set [2]: Multiple-dose PK, SC bolus then continuous 13-day SC infusion, healthy European men. As to conditions: for Css / AUC(0-t) / Cmax: European men, geometric mean (% CV); for AUC(0-t): AUC (0-tlqc) (equal to AUC (0-24)). The procedure: Another study was a phase 1 clinical study of multiple-dose administration of API-MA. The study was conducted in France. It was a randomized, double-blind, placebo-controlled, parallel-group, ascending dose study of the safety, tolerability, plasma PK, and endocrine pharmacodynamic effects of API-MA administered as an SC bolus (0.1 mg) on day 1 followed by continuous SC infusion (i.e., 24 hr/day) from Day 2 to Day 14 (0.01, 0.1, 0.3, or 1.0 mg/day), which was expected to suppress testosterone.

The test system of the next data set is serum LH and FSH. The data set is described as follows: Multiple-dose pharmacodynamics, continuous SC infusion, European men. Type of data set: in vivo, human. How it is done: This study was a phase 1 study of multiple-day, continuous SC infusions of API-MA to 30 healthy European men over age 50. […] Five to six men received active API-MA, and 1 to 2 men received placebo per dose level cohort. The pharmacodynamics of the following hormones were assessed: LH and FSH.
The SC infusion was started 24 hours after the bolus injection; all specimens collected after the 24-hour time point were collected during the SC infusion. Blood specimens were also collected on days 16, 17, 21, 28 and 44 to monitor the return of the hormone concentrations to baseline values.

The next data set concerns serum LH, FSH and PSA. The data set is described as follows: Multiple-dose pharmacodynamics, Japanese prostate cancer patients. Type of data set: in vivo, human. The procedure: The study was a phase 1 study in hormone naïve Japanese prostate cancer patients. Six patients received API-MA doses of 0.5 mg (3 patients) and 1.0 mg (3 patients) administered via 2-hour SC infusion once daily for 14 days. Summary statistics of serum concentrations of LH, FSH, GH, PRL, and TSH, as well as plasma concentration of ACTH and serum concentration of prostate-specific antigen (PSA), at baseline and at each evaluation point, changes from baseline were calculated for each dose, and the data (individual values and mean±standard deviation) were plotted against time for each dose. […] Changes in serum LH were similar between 0.5 and 1.0 mg of API-MA (data for API-MA 1.0 mg/day dose group not shown).

The target of another data set is T1, dog KISS1R (Canis lupus familiaris, UniProt A0A8I3S0V2).
T1 construct: expressed in transfected cells; host or cells: Chinese hamster ovary dihydrofolate reductase negative cells
T1 sequence (A0A8I3S0V2 1-382): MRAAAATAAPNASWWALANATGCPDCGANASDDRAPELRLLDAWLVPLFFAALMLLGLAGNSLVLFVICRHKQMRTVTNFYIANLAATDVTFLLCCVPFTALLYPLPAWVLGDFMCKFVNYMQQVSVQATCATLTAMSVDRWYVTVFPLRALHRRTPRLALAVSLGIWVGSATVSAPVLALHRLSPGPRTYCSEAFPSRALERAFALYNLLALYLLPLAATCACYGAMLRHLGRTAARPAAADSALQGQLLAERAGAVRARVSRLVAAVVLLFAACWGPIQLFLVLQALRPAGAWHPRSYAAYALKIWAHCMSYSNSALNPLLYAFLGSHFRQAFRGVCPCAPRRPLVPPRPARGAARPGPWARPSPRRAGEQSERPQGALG
The data set is described as follows: Intracellular Ca2+ mobilization (fluorometric imaging plate reader), dog KISS1R. Type of data set: cell-based. How it is done: The effects of API-MA on intracellular Ca^2+ mobilization in KISS1R-expressing recombinant cells were evaluated by performing the fluorometric imaging plate reader assay.
In general terms: Calcium assays in cells follow changes in intracellular calcium, usually with a dye or a luminescent sensor.

Another data set concerns the target CYP2C9 (Homo sapiens, UniProt P11712). The data set can be described thus: Inhibition of recombinant CYP2C9. Type of data set: in vitro ADME.
In a further data set the test system is serum LH, FSH, E2. The data set can be described thus: Physiological effects in healthy women, follicular phase (Example 11, Part 1). It is filed as in vivo, human. From the text: The study population included healthy women, aged 18-35 years, with BMI 18-30 kg/m^2, no medical problems and not taking any medications or hormonal contraception. Three healthy, female subjects were selected and randomized and received a single dose of each of the three study regimens noted below (one regimen per study period). All women were scheduled for three Study D1 Visits (each during the follicular phase of the menstrual cycle). […] The order in which a subject receives one of the three study regimens was determined by a randomization matrix.
The study included a screening visit to collect participants' full medical history and to conduct a general medical examination and blood testing. The three study periods each consisted of three planned study visits per study period (excluding screening and follow-up). Study Day 1 (SD1) Visit of each study period occurred during the follicular phase of the menstrual cycle (days 1-4), and the SD2 and SD3 Visits occurred at 24- and 48-hrs post-dose, respectively (FIG. 14). A follow-up phone call happened 7-10 days post-dose in each study period.
Immediately following dosing, serum LH, FSH, E2 (oestradiol), P (progesterone) and SHBG levels were assessed at 30 minute intervals for up to 14 hours (FIGS. 15A-15C, 16A-16C, 17, 18, 19, 20A, and 20B). These PD variables were also assessed at 24 (Study Day 2) and 48 hours (Study Day 3) post-dose. SHBG changes less rapidly and was measured every 3 hours to reduce blood volume.
Up to 3 mL of blood volume were required for measurement of serum reproductive hormone levels (LH, FSH, E2 and P). Blood samples for serum analysis were collected in plain Vacutainer tubes (Beckton Dickson, Franklin Lakes, N.J., USA), and spun after clotting (˜1 hour at room temperature) for 10 minutes at 3000 rpm. Serum was then stored in a locked freezer at −20° C. until assay of serum reproductive hormone levels.

The mark [3] stands for this setting: male, human, plasma, sc, 0.1 mg, SC bolus 0.1 mg on Day 1, dosing group 0.01 mg/day.
Setting [4] is: male, human, plasma, sc, 0.1 mg, SC bolus 0.1 mg on Day 1, dosing group 0.1 mg/day.
[5] abbreviates: male, human, plasma, sc, 0.1 mg, SC bolus 0.1 mg on Day 1, dosing group 0.3 mg/day.
Setting [6] is: male, human, plasma, sc, 0.1 mg, SC bolus 0.1 mg on Day 1, dosing group 1.0 mg/day.
Setting [7] is: Japanese prostate cancer patients, 0.5 mg/day 2-hour SC infusion for 14 days.

Usually CL/F stands for clearance divided by bioavailability, as obtained after extravascular dosing. In general, Tmax refers to the time at which the peak concentration occurs. The term AUC(0-t) denotes the area under the concentration-time curve up to a stated or last time point. What is called Cmax is the maximum level reached in the sampled fluid or tissue. By EC50 is commonly meant the midpoint of the concentration-response curve. The low end stands for higher potency in that assay, the high end for lower potency in that assay. By IC50 is commonly meant the point on the concentration scale where inhibition reaches its midpoint.

Molecules are shown by their SMILES. Where a SMILES comes first, the peptide text is derived from it. [ ]: non-standard residue; d: D form. Arg(Me) = CNC(=N)NCCC[C@H](N)C(=O)O; Hyp = O=C(O)[C@@H]1C[C@@H](O)CN1; azaGly = NNC(=O)O

Chain of CYP2C9 (P11712 whole entry): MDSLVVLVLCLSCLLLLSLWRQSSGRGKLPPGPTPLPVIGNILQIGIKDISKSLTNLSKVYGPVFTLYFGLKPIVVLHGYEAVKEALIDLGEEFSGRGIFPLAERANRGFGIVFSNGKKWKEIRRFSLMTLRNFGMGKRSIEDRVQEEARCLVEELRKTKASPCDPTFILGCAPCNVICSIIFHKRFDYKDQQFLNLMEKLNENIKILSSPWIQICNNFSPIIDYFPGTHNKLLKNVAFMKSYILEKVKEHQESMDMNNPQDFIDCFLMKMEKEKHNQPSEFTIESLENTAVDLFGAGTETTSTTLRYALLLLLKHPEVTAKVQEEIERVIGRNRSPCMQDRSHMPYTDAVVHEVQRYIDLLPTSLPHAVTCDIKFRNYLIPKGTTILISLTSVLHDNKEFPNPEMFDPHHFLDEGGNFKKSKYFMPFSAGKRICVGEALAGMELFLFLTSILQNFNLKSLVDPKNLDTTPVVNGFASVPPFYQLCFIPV

Consider `CC(=O)O.CNC(=N)NCCC[C@H](NC(=O)[C@H](CC(C)C)NC(=O)NNC(=O)[C@H](Cc1ccccc1)NC(=O)[C@@H](NC(=O)[C@H](CC(N)=O)NC(=O)[C@@H]1C[C@@H](O)CN1C(=O)[C@@H](Cc1ccc(O)cc1)NC(C)=O)[C@@H](C)O)C(=O)N[C@@H](Cc1c[nH]c2ccccc12)C(N)=O` [API-MA, 2-(N-Acetyl-D-tyrosyl-trans-4-hydroxy-L-prolyl-Lasparaginyl-L-threonyl-L-phenylalanyl)-hydrazinocarbonyl-L-leucyl-Nω-methyl-L-arginyl-L-tryptophanamide monoacetate] (Ac-[dY][Hyp]NTF[azaGly]L[Arg(Me)]W-NH2), for which the “Distribution ratio into blood cells” value turned out to be 2.0% in data set [1] (0.01 μg/mL API-FB), 0.0% in data set [1] (0.1 μg/mL API-FB), 0.0% in data set [1] (1 μg/mL API-FB) and 0.5% in data set [1] (10 μg/mL API-FB). In addition, the Css in data set [2] (continuous 13-day SC INF 0.01 mg/day (Days 2-14)) was 20.2 (34) pg/mL; in data set [2] (continuous 13-day SC INF 0.1 mg/day (Days 2-14)) it was 226 (17) pg/mL; in data set [2] (continuous 13-day SC INF 0.3 mg/day (Days 2-14)), 708 (19) pg/mL; in data set [2] (continuous 13-day SC INF 1.0 mg/day (Days 2-14)), 2280 (16) pg/mL. Also, the CL/F in data set [2] (male, human, plasma, sc, 0.01 mg/day) was 343 mL/min; in data set [2] (male, human, plasma, sc, 0.1 mg/day), 308 mL/min; in data set [2] (male, human, plasma, sc, 0.3 mg/day) it was 295 mL/min; in data set [2] (male, human, plasma, sc, 1 mg/day), 305 mL/min. For the same compound, the Tmax in data set [2] (male, human, plasma, sc, 0.1 mg) is 30 min. Also, the AUC(0-t) is 5.08 ng·h/mL in data set [2] (setting [3]), 4.28 ng·h/mL in data set [2] (setting [4]), 4.68 ng·h/mL in data set [2] (setting [5]) and 4.05 ng·h/mL in data set [2] (setting [6]). The Cmax was determined as 1.87 ng/mL in data set [2] (setting [3]), 1.59 ng/mL in data set [2] (setting [4]), 1.65 ng/mL in data set [2] (setting [5]) and 1.29 ng/mL in data set [2] (setting [6]). Also, in the data set with serum LH and FSH (0.1 mg SC bolus on day 1), the “Time of gonadotropin peak after bolus” value is 24 h. Also, the “Serum LH and FSH concentrations during prolonged infusion” value in the data set with serum LH and FSH (13-day SC infusion 0.01 to 1.0 mg/day) is “declined to values below baseline”. The “Time of LH and FSH return to baseline values postdose” value in the data set with serum LH and FSH (after 13-day SC infusion) was not above 7 days. Also, in the data set with serum LH, FSH and PSA (setting [7]), the “Serum FSH levels” value is “completely suppressed from Day 6 to Day 16”. Also, in the data set on serum LH, FSH and PSA (setting [7]), the “Serum LH levels” value is “completely suppressed from Day 6 to Day 16”. For the same compound, the “Serum PSA decrease compared to baseline” value in the data set on serum LH, FSH and PSA (patients receiving 0.5 mg) is on record as “approximately 40%”. The EC50 on dog KISS1R is 2.01 nM. The “Ratio of EC50 of API-MA to kisspeptin (45-54)” value on dog KISS1R (dog KISS1R) amounted to 1.2. The IC50 at CYP2C9 is more than 7.78 nM.
`CNC(=N)NCCC[C@H](NC(=O)[C@H](CC(C)C)NC(=O)NNC(=O)[C@H](Cc1ccccc1)NC(=O)[C@@H](NC(=O)[C@H](CC(N)=O)NC(=O)[C@@H]1C[C@@H](O)CN1C(=O)[C@@H](Cc1ccc(O)cc1)NC(C)=O)[C@@H](C)O)C(=O)N[C@@H](Cc1c[nH]c2ccccc12)C(N)=O` [Compound 1, 2-(N-Acetyl-D-tyrosyl-trans-4-hydroxy-L-prolyl-L-asparaginyl-L-threonyl-L-phenylalanyl)-hydrazinocarbonyl-L-leucyl-Nω-methyl-L-arginyl-L-tryptophanamide] (Ac-[dY][Hyp]NTF[azaGly]L[Arg(Me)]W-NH2): in the data set with serum LH, FSH, E2, the FSH response entry was “very low compared to the LH response”. In the data set with serum LH, FSH, E2 (0.003 nmol/kg SC), the “Time of peak serum LH post-dosing” value is 14 to 36 h. Further, in the data set on serum LH, FSH, E2 (0.03 nmol/kg SC), the “Duration of LH surge” value is listed as “approximately 14 hours”, the “End of LH surge after administration” value was 28 h and the “Time of peak serum LH after administration” value lay in the range of 18 to 20 h.
